Assay results as given in patent US20180221435A1, “ITCH TREATMENT USING A COMBINATION OF NEUROKININ-1, GASTRIN RELEASING PEPTIDE, AND GLUTAMATE RECEPTOR ANTAGONISTS” (The Regents of the University of California, priority 2013, published 2018).
“Also recorded” adds a separate entry of the source.

Key:
[1] = tested on: superficial dorsal horn neurons; assay: In vivo single-unit recording, id histamine-evoked firing, spinal superfusion of antagonists; design: species or system mice
Procedure: Akiyama T et al., The Journal of neuroscience: the official journal of the Society for Neuroscience 29(20):6691-6699 (2009)]. Anesthesia was induced by sodium pentobarbital (60 mg/kg ip) and maintained by supplemental injections (10-20 mg/kg/hr). […] A tungsten microelectrode recorded single-unit activity in the lumbar spinal cord. A chemical search strategy [Akiyama T et al., Journal of neurophysiology 102(4):2176-2183 2009; […] Following mechanical stimulation, histamine (50 μg) was injected id within the same receptive field at a different location via a separate injection cannula. Following the id histamine injection, we tested the effects of antagonists for the receptors of NK1, GRP, or AMPA/kainate in the same manner as described above for chloroquine. […] Following the AITC application, we tested the effects of the NK-1 receptor antagonist, the AMPA/kainate receptor antagonist, or a combination of both antagonists in the same manner as described above for chloroquine. Action potentials were recorded to a computer and counted using Chart software (AD Instruments, Colorado Springs Colo.) and Spike2 software (CED Instruments). […] Mean peak responses elicited by noxious pinch were compared by one way repeated-measures ANOVA followed by post-hoc Bonferroni test, with p<0.05 set as significant. At the end of each experiment, an electrolytic lesion was made at the spinal cord recording site.

[2] = tested on: superficial dorsal horn neurons; assay: Baseline activity of superficial dorsal horn neurons before and after antagonist application; type: in vivo, mice; conditions: ± SEM
Procedure: The single-unit recording from the lumbar spinal cord was conducted as previously detailed [Akiyama T et al., Journal of neurophysiology 102(4):2176-2183 (2009); Akiyama T et al., The Journal of neuroscience: the official journal of the Society for Neuroscience 29(20):6691-6699 (2009)]. Anesthesia was induced by sodium pentobarbital (60 mg/kg ip) and maintained by supplemental injections (10-20 mg/kg/hr). A gravity-driven perfusion system allowed artificial cerebrospinal fluid (Krebs: 117 mM NaCl, 3.6 mM KCl, 2.5 mM CaCl2, 1.2 mM MgCl2, 1.2 mM NaH2PO4, 25 mM NaHCO3 and 11 mM glucose which was equilibrated with 95% 02 and 5% CO2 at 37° C.) to be superfused continually over the exposed lumbosacral spinal cord [Akiyama T et al., PloS one 6(7):e22665 (2011)]. A tungsten microelectrode recorded single-unit activity in the lumbar spinal cord. A chemical search strategy [Akiyama T et al., Journal of neurophysiology 102(4):2176-2183 2009; Akiyama T et al., The Journal of neuroscience: the official journal of the Society for Neuroscience 29(20):6691-6699 (2009)] was used to identify and isolate chloroquine-responsive units. Our search strategy was intended to maximize the chance of isolating a chloroquine-responsive neuron; it was assumed that such neurons either gave rise to ascending projections, or served as interneurons in segmental scratch-reflex circuitry, and no attempt was presently made to distinguish between these possibilities.
There was no significant effect of any of the antagonists on the baseline activity of superficial dorsal horn neurons that were subsequently show to respond to pruritogens. […] Values prior to, and after administration of each antagonist individually or in combination, are as follows. NK-1 antagonist L-733060: pre-application 0.88 Hz±0.23 (SEM), post-antagonist 0.72 Hz±0.19 (n=10). GRPR antagonist RC-3095: pre-application 0.54 Hz±0.54, post-antagonist: 0.53 Hz±0.53 (n=4). CNQX: pre-application 0.53 Hz±0.14, post-antagonist 0.64 Hz±0.21 (n=22). CNQX+L-733060: pre-application 0.52 Hz±0.17, post-antagonists 0.43 Hz±0.11 (n=26). CNQX+L-733060+RC-3095: pre-application 0.14 Hz±0.06, post-antagonists 0.17 Hz±0.06 (n=9).

[3] = tested on: histamine-evoked scratching; assay: Histamine-evoked scratching behavior after intrathecal antagonists; type: in vivo, mice; conditions: intrathecal CNQX 20 nmol, 5 min before id histamine 271 nmol
Description: The fur on the rostral back was shaved and mice were habituated to the Plexiglas recording arena one week prior to testing. For intrathecal injections, either vehicle (saline), the GRP receptor antagonist RC-3095 (0.3 nmol; Sigma-Aldrich, St. Louis Mo.), the NK-1 antagonist L-733060 (22.7 nmol; Tocris Bioscience, Minneapolis, Minn.), the AMPA/kainate antagonist CNQX (20 nmol; Tocris Bioscience), a combination of CNQX (20 nmol) and L-733060 (22.7 nmol), or a combination of RC-3095 (0.3 nmol), CNQX (20 nmol) and L-733060 (22.7 nmol), was administered by lumbar puncture, followed 5 minutes later by id injection (10 μl) of either chloroquine (193 nmol; Sigma-Aldrich) or histamine (271 nmol; Sigma-Aldrich). Microinjections were made id in the nape of the neck using a 30 G needle attached to a Hamilton microsyringe by PE-50 tubing. Immediately after the id injection the mouse was placed into the arena and videotaped from above for 30 min. Generally 3-4 mice were injected and videotaped simultaneously. Immediately after commencing videotaping all investigators left the room.
Videotapes were reviewed by investigators blinded to the treatment, and the number of scratch bouts was counted at 5-minute intervals. […] Hind paw movements directed away from the injection site (e.g., ear-scratching) and grooming movements were not counted. […]

`N#Cc1cc2[nH]c(=O)c(=O)[nH]c2cc1[N+](=O)[O-]` [CNQX] was tested, and the “histamine-evoked response of NS units” value ([1]; NS units, vs vehicle) was “significantly reduced”, the “histamine-evoked response of WDR units” value ([1]; WDR units, vs vehicle) was “significantly reduced” and the “histamine-evoked firing, effect of spinal superfusion” value ([1]; all units) was “significantly attenuated histamine-evoked firing to a level not different from that elicited by id injection of vehicle (saline); also recorded: almost completely abolished histamine-evoked firing”. The “baseline neuronal firing rate, post-antagonist” value ([2]; averaged over 1 min following antagonist application) was 0.64 Hz, the “baseline neuronal firing rate, pre-application” value ([2]; averaged over 1 min prior to antagonist application) was 0.53 Hz and the “histamine-evoked scratching (scratch bouts/30 minutes)” value [3] was “significantly decreased; also recorded: significantly reduced; also recorded: prevented histamine-evoked scratching behavior”.
